For one assay, the target named is human CB2 receptors (Homo sapiens (Human), UniProt P34972). In words: cAMP assay (functional), CHO cells expressing human CB2 receptors. The format is cell-based. The note with it: functional cAMP assay, CHO cells expressing human CB2; read-out: human CB2 EC50. How it is done:
(§1) CHO cells expressing human CB1 or CB2 receptors are seeded 17-24 hours prior to the experiment 50.000 cells per well in a black 96 well plate with flat clear bottom (Corning Costar #3904) in DMEM (Invitrogen No. 31331), 1×HT supplement, with 10% fetal calf serum and incubated at 5% CO2 and 37° C. in a humidified incubator. The growth medium was exchanged with Krebs Ringer Bicarbonate buffer with 1 mM IBMX and incubated at 30° C. for 30 min. Compounds were added to a final assay volume of 100 μl and incubated for 30 min at 30° C. Using the cAMP-Nano-TRF detection kit the assay (Roche Diagnostics) was stopped by the addition of 50 μl lysis reagent (Tris, NaCl, 1.5% Triton X100, 2.5% NP40, 10% NaN3) and 50 μl detection solutions (20 μM mAb Alexa700-cAMP 1:1, and 48 μM Ruthenium-2-AHA-cAMP) and shaken for 2 h at room temperature. The time-resolved energy transfer is measured by a TRF reader (Evotec Technologies GmbH), equipped with a ND:YAG laser as excitation source. The plate is measured twice with the excitation at 355 nm and at the emission with a delay of 100 ns and a gate of 100 ns, total exposure time 10 s at 730 (bandwidth 30 nm) or 645 nm (bandwidth 75 nm), respectively. The FRET signal is calculated as follows: FRET=T730-Alexa730-P (T645-B645) with P=Ru730-B730/Ru645-B645, where T730 is the test well measured at […], T645 is the test well measured at 645 nm, B730 and B645 are the buffer controls at 730 nm and 645 nm, respectively. cAMP content is determined from the function of a standard curve spanning from 10 μM to 0.13 nM cAMP.
(§2) EC50 values were determined using Activity Base analysis (ID Business Solution, Limited). The EC50 values for a wide range of cannabinoid agonists generated from this assay were in agreement with the values published in the scientific literature.

For a further assay, the target named is human CB1 receptors (Homo sapiens (Human), UniProt P21554). In words: cAMP assay (functional), CHO cells expressing human CB1 receptors. The format is cell-based. The conditions noted are these: functional cAMP assay, CHO cells expressing human CB1; read-out: human CB1 EC50. As for the experimental part:
as §1, §2

14 compounds from patent publication US9512141B2, “Pyrazine derivatives as CB2 receptor agonists” (Hoffmann-La Roche Inc., priority 2012, dated 2016) can be followed below.

Structures are written as SMILES.

Usually EC50 stands for the concentration giving half of the maximal effect.

Sequence of human CB2 receptors (P34972 whole entry): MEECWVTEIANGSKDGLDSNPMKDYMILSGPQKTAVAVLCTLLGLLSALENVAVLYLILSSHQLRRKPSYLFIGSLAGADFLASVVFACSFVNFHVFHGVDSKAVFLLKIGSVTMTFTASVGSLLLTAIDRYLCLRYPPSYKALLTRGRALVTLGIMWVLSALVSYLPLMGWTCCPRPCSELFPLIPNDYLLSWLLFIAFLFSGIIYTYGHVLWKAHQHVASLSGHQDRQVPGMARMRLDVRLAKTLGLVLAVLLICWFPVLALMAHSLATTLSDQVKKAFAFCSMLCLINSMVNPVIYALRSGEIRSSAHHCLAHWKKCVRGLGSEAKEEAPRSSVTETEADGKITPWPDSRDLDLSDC
Sequence of human CB1 receptors (P21554 whole entry): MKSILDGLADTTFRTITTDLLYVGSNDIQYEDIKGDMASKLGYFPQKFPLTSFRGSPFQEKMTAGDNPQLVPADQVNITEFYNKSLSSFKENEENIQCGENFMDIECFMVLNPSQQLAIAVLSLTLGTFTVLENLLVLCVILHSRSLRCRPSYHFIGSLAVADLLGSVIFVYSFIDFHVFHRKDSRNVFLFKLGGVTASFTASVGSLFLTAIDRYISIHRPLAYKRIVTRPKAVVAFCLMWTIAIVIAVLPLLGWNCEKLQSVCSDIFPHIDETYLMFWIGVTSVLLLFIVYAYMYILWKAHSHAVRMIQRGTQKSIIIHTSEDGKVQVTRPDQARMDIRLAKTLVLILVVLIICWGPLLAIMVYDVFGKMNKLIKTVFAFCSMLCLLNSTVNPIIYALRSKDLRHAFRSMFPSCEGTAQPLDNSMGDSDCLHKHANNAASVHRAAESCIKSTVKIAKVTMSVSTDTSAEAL

As to `C[C@@H]1CCCN1C(=O)c1cnc(N2CC(F)(F)C2)c(OCC2CC2)n1` [Example 2, [6-Cyclopropylmethoxy-5-(3,3-difluoro-azetidin-1-yl)-pyrazin-2-yl]-((R)-2-methyl-pyrrolidin-1-yl)-methanone], the values for the EC50 on human CB2 receptors and on human CB1 receptors were 4.9 nM and over 10000 nM, respectively.

With `CC(=O)OC1(C)CCN(C(=O)c2cnc(N3CC(F)(F)C3)c(OCC3CC3)n2)C1` (stereo not shown) [Example 29, Acetic acid 1-[6-cyclopropylmethoxy-5-(3,3-difluoro-azetidin-1-yl)-pyrazine-2-carbonyl]-3-methyl-pyrrolidin-3-yl ester], the values for the EC50 on human CB2 receptors and on human CB1 receptors were 8.8 nM and over 10000 nM, respectively.

As for `CC1(C)CC(C(N)=O)N(C(=O)c2cnc(C3CC3)c(OCC3CC3)n2)C1` (single isomer, unassigned; (-)) [Example 39, (−)-1-(5-Cyclopropyl-6-cyclopropylmethoxy-pyrazine-2-carbonyl)-4,4-dimethyl-pyrrolidine-2-carboxylic acid amide], the EC50 on human CB2 receptors was 10.3 nM; at human CB1 receptors, over 10000 nM.

As to `COCC(C)(C)N(C)C(=O)c1cnc(C2CC2)c(OCC2CC2)n1` [Example 14, 5-Cyclopropyl-6-cyclopropylmethoxy-pyrazine-2-carboxylic acid (2-methoxy-1,1-dimethyl-ethyl)-methyl-amide], the EC50 on human CB2 receptors is 14.6 nM; on human CB1 receptors it was over 10000 nM.

Turning to `COCCN(C(=O)c1cnc(N2CC(F)(F)C2)c(OCC2CC2)n1)C(C)(C)C` [Example 3, 6-Cyclopropylmethoxy-5-(3,3-difluoro-azetidin-1-yl)-pyrazine-2-carboxylic acid tert-butyl-(2-methoxy-ethyl)-amide], the EC50 was 4 nM on human CB2 receptors and over 10000 nM at human CB1 receptors.

As for `CC1(C)CC(C(N)=O)N(C(=O)c2cnc(C3CC3)c(OCC3CC3)n2)C1` (stereo not shown) [Example 34, 1-(5-Cyclopropyl-6-cyclopropylmethoxy-pyrazine-2-carbonyl)-4,4-dimethyl-pyrrolidine-2-carboxylic acid amide], the EC50 on human CB2 receptors was 1.6 nM; at human CB1 receptors it was over 10000 nM.

On to `O=C(c1cnc(N2CC(F)(F)C2)c(OCC2CC2)n1)N1CCN(CCO)CC1` [Example 20, [6-Cyclopropylmethoxy-5-(3,3-difluoro-azetidin-1-yl)-pyrazin-2-yl]-[4-(2-hydroxy-ethyl)-piperazin-1-yl]-methanone], for which the values for the EC50 on human CB2 receptors and at human CB1 receptors were 316 nM and over 10000 nM, respectively.

`COC(=O)[C@@H]1CCCN1C(=O)c1cnc(C2CC2)c(OCC2CC2)n1` [Example 16, (S)-1-(5-Cyclopropyl-6-cyclopropylmethoxy-pyrazine-2-carbonyl)-pyrrolidine-2-carboxylic acid methyl ester]: the EC50 on human CB2 receptors was 191 nM; on human CB1 receptors, over 10000 nM.

For the compound `O=C(c1cnc(N2CC(F)(F)C2)c(OCC2CC2)n1)N1CCC(F)(F)C1` [Example 8, [6-Cyclopropylmethoxy-5-(3,3-difluoro-azetidin-1-yl)-pyrazin-2-yl]-(3,3-difluoro-pyrrolidin-1-yl)-methanone], the EC50 at human CB2 receptors is 29.8 nM; on human CB1 receptors, over 10000 nM.

With `CN(C)C(=S)[C@H]1CCCN1C(=O)c1cnc(N2CC(F)(F)C2)c(OCC2CC2)n1` [Example 24, (R)-1-[6-Cyclopropylmethoxy-5-(3,3-difluoro-azetidin-1-yl)-pyrazine-2-carbonyl]-pyrrolidine-2-carbothioic acid dimethylamide], the results for the half-maximal effective concentration (EC50) on human CB2 receptors and at human CB1 receptors were 333 nM and over 10000 nM, respectively.

As to `O=C(c1cnc(N2CC(F)(F)C2)c(OCC2CC2)n1)N1CC2CC1CO2` (stereo not shown) [Example 6, [6-Cyclopropylmethoxy-5-(3,3-difluoro-azetidin-1-yl)-pyrazin-2-yl]-2-oxa-5-aza-bicyclo[2.2.1]hept-5-yl-methanone], the concentration for a half-maximal effect (EC50) was 257 nM on human CB2 receptors and over 10000 nM at human CB1 receptors.

With `CC1(C)COCCN1C(=O)c1cnc(N2CC(F)(F)C2)c(OCC2CC2)n1` [Example 4, [6-Cyclopropylmethoxy-5-(3,3-difluoro-azetidin-1-yl)-pyrazin-2-yl]-(3,3-dimethyl-morpholin-4-yl)-methanone], the EC50 is 4.3 nM at human CB2 receptors and over 10000 nM at human CB1 receptors.

On to `CC(=O)O[C@H]1CCN(C(=O)c2cnc(N3CC(F)(F)C3)c(OCC3CC3)n2)C1` [Example 27, Acetic acid (S)-1-[6-cyclopropylmethoxy-5-(3,3-difluoro-azetidin-1-yl)-pyrazine-2-carbonyl]-pyrrolidin-3-yl ester], for which the values for the EC50 on human CB2 receptors and on human CB1 receptors were 271 nM and over 10000 nM, respectively.

For `NC(=O)[C@@H]1CC(F)(F)CN1C(=O)c1cnc(N2CC(F)(F)C2)c(OCC(F)F)n1` [Example 42, (2S)-1-[5-(3,3-Difluoroazetidin-1-yl)-6-(2,2-difluoroethoxyl)pyrazine-2-carbonyl]-4,4-difluoro-pyrrolidine-2-carboxamide], the figures for the EC50 on human CB2 receptors and on human CB1 receptors were 310 nM and over 10000 nM, respectively.
